In ChEMBL document CHEMBL4196118, “Discovery of MK-8318, a Potent and Selective CRTh2 Receptor Antagonist for the Treatment of Asthma” (ACS Med Chem Lett, 2018):
The source made the active and inactive calls. The calls are words filed in the database; no cut-off is given here.

How the values were obtained:
[1] = AUC (0 to 6 hrs) in rat at 3 mg/kg, iv; assay type: ADME, organism-based; design: time < 6 hr, dose 3 mg/kg, route intravenous; conditions: in vivo
Cytochrome P450 3A4 = Cytochrome P450 3A4 (Homo sapiens, UniProt P08684); experiment: Inhibition of CYP3A4 (unknown origin); assay type: ADME
Cytochrome P450 2C9 = Cytochrome P450 2C9 (Homo sapiens, UniProt P11712); experiment: Inhibition of CYP2C9 (unknown origin); assay type: ADME
Cytochrome P450 2D6 = Cytochrome P450 2D6 (Homo sapiens, UniProt P10635); experiment: Inhibition of CYP2D6 (unknown origin); assay type: ADME
[2] = molecular target: T1, Nuclear receptor subfamily 1 group I member 2 (Homo sapiens, UniProt O75469); experiment: Activation of PXR (unknown origin)
T1 sequence (O75469 whole entry): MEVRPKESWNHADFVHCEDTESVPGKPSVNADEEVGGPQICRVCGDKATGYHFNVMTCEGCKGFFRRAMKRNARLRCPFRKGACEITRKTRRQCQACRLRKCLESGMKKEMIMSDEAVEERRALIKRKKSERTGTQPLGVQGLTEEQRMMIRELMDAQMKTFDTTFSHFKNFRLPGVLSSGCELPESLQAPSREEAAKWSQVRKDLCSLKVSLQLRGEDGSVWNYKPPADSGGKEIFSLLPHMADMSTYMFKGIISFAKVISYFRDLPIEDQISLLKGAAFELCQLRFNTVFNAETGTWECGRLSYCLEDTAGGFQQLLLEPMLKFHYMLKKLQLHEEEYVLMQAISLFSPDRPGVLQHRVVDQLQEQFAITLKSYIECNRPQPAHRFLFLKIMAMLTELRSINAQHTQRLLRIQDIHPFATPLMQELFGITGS

[3] = Clearance in rat plasma at 3 mg/kg, iv; assay type: ADME, organism-based
[4] = Clearance in dog plasma at 1 mg/kg, iv; assay type: ADME, organism-based, Canis lupus familiaris
[5] = Clearance in monkey plasma at 1 mg/kg, iv; assay type: ADME, organism-based, Macaca mulatta; conditions: rhesus monkey
[6] = Volume of distribution in rat at 3 mg/kg, iv; assay type: ADME, organism-based; conditions: in vivo
[7] = Volume of distribution in dog at 1 mg/kg, iv; assay type: ADME, organism-based, Canis lupus familiaris; conditions: in vivo
[8] = Volume of distribution in monkey at 1 mg/kg, iv; assay type: ADME, organism-based, Macaca mulatta; conditions: rhesus monkey, in vivo
[9] = Half life in rat at 3 mg/kg, iv; assay type: ADME, organism-based; conditions: in vivo
[10] = Half life in dog at 1 mg/kg, iv; assay type: ADME, organism-based, Canis lupus familiaris; conditions: in vivo
[11] = Half life in monkey at 1 mg/kg, iv; assay type: ADME, organism-based, Macaca mulatta; conditions: rhesus monkey, in vivo
[12] = AUC in rat at 3 mg/kg, iv; assay type: ADME, organism-based; conditions: in vivo
[13] = AUC in dog at 1 mg/kg, iv; assay type: ADME, organism-based, Canis lupus familiaris; conditions: in vivo
[14] = AUC in monkey at 1 mg/kg, iv; assay type: ADME, organism-based, Macaca mulatta; conditions: rhesus monkey, in vivo
[15] = Cmax in rat at 10 mg/kg, po; assay type: ADME, organism-based; design: dose 10 mg/kg, route oral; conditions: in vivo
[16] = Cmax in dog at 2 mg/kg, po; assay type: ADME, organism-based, Canis lupus familiaris; design: dose 2 mg/kg, route oral; conditions: in vivo
[17] = Cmax in rhesus monkey at 10 mg/kg, po; assay type: ADME, organism-based, Macaca mulatta; design: dose 10 mg/kg, route oral; conditions: in vivo
[18] = Tmax in rat at 10 mg/kg, po; assay type: ADME, organism-based; conditions: in vivo
[19] = Tmax in dog at 2 mg/kg, po; assay type: ADME, organism-based, Canis lupus familiaris; conditions: in vivo
[20] = Tmax in rhesus monkey at 10 mg/kg, po; assay type: ADME, organism-based, Macaca mulatta; conditions: in vivo
[21] = AUC in rat at 10 mg/kg, po; assay type: ADME, organism-based; conditions: in vivo
[22] = AUC in dog at 2 mg/kg, po; assay type: ADME, organism-based, Canis lupus familiaris; conditions: in vivo
[23] = AUC in rhesus monkey at 10 mg/kg, po; assay type: ADME, organism-based, Macaca mulatta; conditions: in vivo
[24] = Oral bioavailability in rat at 10 mg/kg; assay type: ADME, organism-based; conditions: in vivo
[25] = Oral bioavailability in dog at 2 mg/kg; assay type: ADME, organism-based, Canis lupus familiaris; conditions: in vivo
[26] = Oral bioavailability in rhesus monkey at 10 mg/kg; assay type: ADME, organism-based, Macaca mulatta; conditions: in vivo
Ovis aries [27] = experiment: Anti-asthmatic activity in sheep lung allergen model assessed as inhibition of antigen-induced late airway response at 1 mg/kg administered as 4 hrs iv infusion starting at 1 hr prior to antigen challenge measured 4 to 8 hrs post antigen challenge; assay type: functional, organism-based
Ovis aries [28] = experiment: Anti-asthmatic activity in sheep lung allergen model assessed as inhibition of antigen-induced airway hyper-responsiveness at 1 mg/kg administered as 4 hrs iv infusion starting at 1 hr prior to antigen challenge measured 24 hrs post antigen challenge; assay type: functional, organism-based
Rattus norvegicus [29] = experiment: (§1) Antiinflammatory activity in Brown Norway rat assessed as inhibition of OVA-induced eosinophils levels in BAL cells at 3 mg/kg, po qd for 3 days followed by aerosolized OVA challenge for 30 mins administered 2 hrs post last compound dose on day 3 measured 24 hrs post aerosolized OVA challenge relative to control; assay type: functional
Rattus norvegicus [30] = experiment: as §1, with “neutrophils” for “eosinophils”; assay type: functional
Rattus norvegicus [31] = experiment: as §1, with “total cell” for “eosinophils”; assay type: functional
Rattus norvegicus [32] = experiment: as §1, with “OVA-induced neutrophils” for “OVA-induced eosinophils”, “at 10” for “at 3”; assay type: functional
Rattus norvegicus [33] = experiment: as §1, with “at 10” for “at 3”; assay type: functional
Rattus norvegicus [34] = experiment: as §1, with “OVA-induced total cell” for “OVA-induced eosinophils”, “at 10” for “at 3”; assay type: functional
Rattus norvegicus [35] = experiment: as §1, with “at 30” for “at 3”; assay type: functional
Rattus norvegicus [36] = experiment: as §1, with “OVA-induced neutrophils” for “OVA-induced eosinophils”, “at 30” for “at 3”; assay type: functional
Rattus norvegicus [37] = experiment: as §1, with “OVA-induced total cell” for “OVA-induced eosinophils”, “at 30” for “at 3”; assay type: functional
[38] = molecular target: T2, Prostaglandin D2 receptor 2 (Homo sapiens, UniProt Q9Y5Y4)
T2 sequence (Q9Y5Y4 whole entry): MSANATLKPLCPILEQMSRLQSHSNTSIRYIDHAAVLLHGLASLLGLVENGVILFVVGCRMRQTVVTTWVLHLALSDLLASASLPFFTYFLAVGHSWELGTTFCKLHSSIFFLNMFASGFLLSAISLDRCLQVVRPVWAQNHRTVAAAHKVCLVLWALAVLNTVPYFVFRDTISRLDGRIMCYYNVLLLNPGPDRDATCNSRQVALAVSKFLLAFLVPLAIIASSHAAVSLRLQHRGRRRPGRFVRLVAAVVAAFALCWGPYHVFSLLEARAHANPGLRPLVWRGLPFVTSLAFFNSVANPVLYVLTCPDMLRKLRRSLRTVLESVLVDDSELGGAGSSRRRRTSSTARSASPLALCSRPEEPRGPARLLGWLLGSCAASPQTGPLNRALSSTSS

[39] = molecular target: T2, Prostaglandin D2 receptor 2; remark: listed apart in the source
Description: Antagonist activity at human CRTh2 expressed in CHOK1 cells assessed as inhibition of PGD2-induced beta-arrestin recruitment incubated for 30 mins followed by PGD2 stimulation measured after 60 mins by PathHunter based chemiluminescence assay

[40] = molecular target: T2, Prostaglandin D2 receptor 2; experiment: biochemical
Description: Displacement of [3H]PGD2 from human CRTh2 expressed in HEK cell membranes after 60 mins by scintillation counting method

Cytochrome P450 3A4, sequence (P08684 whole entry): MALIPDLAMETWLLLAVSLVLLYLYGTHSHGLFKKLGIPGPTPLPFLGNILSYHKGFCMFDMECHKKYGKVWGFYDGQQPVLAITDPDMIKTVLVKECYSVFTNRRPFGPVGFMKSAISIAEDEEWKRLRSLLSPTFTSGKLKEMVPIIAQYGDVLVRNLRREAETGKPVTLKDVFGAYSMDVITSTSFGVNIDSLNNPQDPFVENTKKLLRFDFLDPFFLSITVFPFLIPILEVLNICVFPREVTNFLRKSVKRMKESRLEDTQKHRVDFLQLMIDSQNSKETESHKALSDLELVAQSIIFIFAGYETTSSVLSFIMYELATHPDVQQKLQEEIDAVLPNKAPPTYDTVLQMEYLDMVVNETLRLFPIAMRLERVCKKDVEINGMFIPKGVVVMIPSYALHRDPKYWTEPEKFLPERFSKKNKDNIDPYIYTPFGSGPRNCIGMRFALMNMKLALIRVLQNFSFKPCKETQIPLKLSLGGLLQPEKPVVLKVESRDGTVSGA
Cytochrome P450 2C9, sequence (P11712 whole entry): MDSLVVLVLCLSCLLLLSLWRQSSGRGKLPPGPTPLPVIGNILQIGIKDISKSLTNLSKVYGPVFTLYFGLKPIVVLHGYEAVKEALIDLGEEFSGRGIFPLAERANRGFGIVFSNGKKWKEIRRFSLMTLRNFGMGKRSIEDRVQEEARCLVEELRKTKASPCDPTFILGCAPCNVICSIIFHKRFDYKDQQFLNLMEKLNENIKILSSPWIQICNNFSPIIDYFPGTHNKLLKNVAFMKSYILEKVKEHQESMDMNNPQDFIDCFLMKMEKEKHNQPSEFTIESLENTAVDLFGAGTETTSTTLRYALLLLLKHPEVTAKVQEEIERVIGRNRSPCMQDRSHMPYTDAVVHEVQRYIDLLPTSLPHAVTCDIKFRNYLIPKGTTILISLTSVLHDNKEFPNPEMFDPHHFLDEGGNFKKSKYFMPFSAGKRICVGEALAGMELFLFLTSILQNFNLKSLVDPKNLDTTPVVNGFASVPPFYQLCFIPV
Cytochrome P450 2D6, sequence (P10635 whole entry): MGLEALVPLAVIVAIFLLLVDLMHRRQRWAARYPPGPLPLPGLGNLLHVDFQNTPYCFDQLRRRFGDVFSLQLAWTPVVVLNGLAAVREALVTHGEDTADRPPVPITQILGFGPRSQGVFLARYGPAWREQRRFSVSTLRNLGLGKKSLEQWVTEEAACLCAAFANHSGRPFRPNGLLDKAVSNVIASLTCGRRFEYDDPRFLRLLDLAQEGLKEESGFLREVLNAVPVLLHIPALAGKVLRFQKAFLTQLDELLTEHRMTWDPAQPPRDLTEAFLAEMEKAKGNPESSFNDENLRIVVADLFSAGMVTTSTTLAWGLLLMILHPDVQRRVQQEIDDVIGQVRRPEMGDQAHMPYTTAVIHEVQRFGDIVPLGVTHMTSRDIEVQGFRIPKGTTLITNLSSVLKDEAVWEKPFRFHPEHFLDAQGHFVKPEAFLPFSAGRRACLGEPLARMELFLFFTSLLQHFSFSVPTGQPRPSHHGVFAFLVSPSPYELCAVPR

AUC(0-t) at 6 h [1]: 3.35 µM·h
inhibition (INH) (Cytochrome P450 3A4): Not Active
inhibition (INH) (Cytochrome P450 2C9): Not Active
inhibition (INH) (Cytochrome P450 2D6): Not Active
Activity [2]: Not Active
clearance [3]: 29.1 mL/min/kg
clearance [4]: 9.4 mL/min/kg
clearance [5]: 16.4 mL/min/kg
Vd [6]: 5.8 L/kg
Vd [7]: 2.4 L/kg
Vd [8]: 5.8 L/kg
half-life [9]: 7.5 h
half-life [10]: 10.4 h
half-life [11]: 12.9 h
AUC [12]: 3.4 µM·h
AUC [13]: 3.46 µM·h
AUC [14]: 1.92 µM·h
Cmax [15]: 2070 nM
Cmax [16]: 2470 nM
Cmax [17]: 5690 nM
Tmax [18]: 0.58 h
Tmax [19]: 0.42 h
Tmax [20]: 0.42 h
AUC [21]: 6.77 µM·h
AUC [22]: 8.51 µM·h
AUC [23]: 6.76 µM·h
bioavailability [24]: 61%
bioavailability [25]: 121%
bioavailability [26]: 28%
IC50 [38]: 8 nM
IC50 [39]: 3.5 nM
Ki [40]: 5 nM
Structure (SMILES): O=C(O)CCC(=O)N(C1CC1)[C@H]1c2cc(F)ccc2N(C(=O)c2ccc(OC(F)(F)F)cc2)[C@H]2CCC[C@H]21
inhibition (Ovis aries [27]): Active
inhibition (Ovis aries [28]): Active
inhibition in vivo at 3 mg/kg (Rattus norvegicus [29]): 36%
inhibition in vivo at 3 mg/kg (Rattus norvegicus [30]): 56%
inhibition in vivo at 3 mg/kg (Rattus norvegicus [31]): 52%
inhibition in vivo at 10 mg/kg (Rattus norvegicus [32]): 49%
inhibition in vivo at 10 mg/kg (Rattus norvegicus [33]): 65%
inhibition in vivo at 10 mg/kg (Rattus norvegicus [34]): 68%
inhibition in vivo at 30 mg/kg (Rattus norvegicus [35]): 58%
inhibition in vivo at 30 mg/kg (Rattus norvegicus [36]): 77%
inhibition in vivo at 30 mg/kg (Rattus norvegicus [37]): 78%
